From US20110053900A1, “PROGESTERONE ANTAGONISTS SUCH AS CDB-4124 IN THE TREATMENT OF BREAST CANCER” (Repros Therapeutics inc, priority 2008, published 2011)

Experiments:
[1] = Serum corticosterone by ELISA; type: in vivo, rat; settings: 20 or 10 mg/kg
Protocol: The animals were assessed three times for their levels of progesterone: initially, when they were about to go on treatment; a second time after 21 days of treatment; and finally after treatment at sacrifice which was 2-4 days after the last s.c. injection. All blood samples were taken by heart puncture; serum was prepared and held frozen at −40° C. The levels of the steroid hormones progesterone, cortisol, and corticosterone were determined by ELISA.
The concentrations of steroid hormones were determined three times during the study: before the beginning of treatments, after 21 days of treatment and finally after treatment at sacrifice which was 2-4 days after the last s.c. injection. All samples were taken by heart puncture. Serum was obtained and held frozen at −40° C. The levels of steroid hormones were determined by ELISA.
Corticosterone is the most abundant glucocorticoid in rats. The effects of the SPRMs on cortisol may be secondary to strong effects on corticosterone. […] The levels of corticosterone were 10-40 times higher than the levels of cortisol. However, almost no difference between groups with respect to mean corticosterone levels was observed. […] There was no statistical difference in levels of corticosterone between animals with tumors and without tumors at either 21-days (p=0.94, t-test, two-tailed) or at sacrifice (p=0.37, t-test, two-tailed).

[2] = Estrogen levels in human females during administration; type: in vivo; settings: administration periods of at least six months
[3] = target: T1, glucocorticoid receptor (rbGR) (Oryctolagus cuniculus, UniProt P59667); experiment: Glucocorticoid receptor binding; parameters: species or system rabbit
T1 construct: cytosol containing PR or GR were prepared in TEGMD buffer; from tissue; host or cells: thymus of estradiol-primed immature rabbits (cytosol)
T1 sequence (P59667 1-772): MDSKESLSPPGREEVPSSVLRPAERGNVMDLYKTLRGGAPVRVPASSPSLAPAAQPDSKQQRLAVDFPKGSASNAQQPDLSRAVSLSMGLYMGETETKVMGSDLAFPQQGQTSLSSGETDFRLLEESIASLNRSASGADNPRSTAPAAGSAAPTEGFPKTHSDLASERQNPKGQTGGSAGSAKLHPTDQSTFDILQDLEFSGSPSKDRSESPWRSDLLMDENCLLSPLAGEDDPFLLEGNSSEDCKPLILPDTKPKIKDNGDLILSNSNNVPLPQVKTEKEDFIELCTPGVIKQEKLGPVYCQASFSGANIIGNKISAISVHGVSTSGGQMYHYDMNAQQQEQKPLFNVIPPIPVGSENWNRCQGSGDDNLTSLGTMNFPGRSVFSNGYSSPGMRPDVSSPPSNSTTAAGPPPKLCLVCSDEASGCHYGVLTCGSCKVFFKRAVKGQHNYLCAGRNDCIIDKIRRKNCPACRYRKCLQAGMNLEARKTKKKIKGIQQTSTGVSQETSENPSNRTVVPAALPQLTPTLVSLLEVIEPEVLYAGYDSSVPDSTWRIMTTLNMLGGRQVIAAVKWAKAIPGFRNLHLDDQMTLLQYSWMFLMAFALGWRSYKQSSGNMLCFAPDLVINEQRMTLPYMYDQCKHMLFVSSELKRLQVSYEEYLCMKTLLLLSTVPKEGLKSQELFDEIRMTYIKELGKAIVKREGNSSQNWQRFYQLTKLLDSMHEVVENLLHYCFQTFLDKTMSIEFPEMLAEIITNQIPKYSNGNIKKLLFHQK
Protocol: Certain antiprogestins were tested in receptor-binding assays for their ability to bind rabbit progesterone receptor (rbPR) and glucocorticoid receptor (rbGR). […] For PR binding, the cytosol was incubated with 6 nM 1,2-[^3H]progesterone (50.0 Ci/mmole) and competitors were added at concentrations from 2 to 100 nM. For binding to GR, the cytosol was incubated with 6 nM 6,7-[^3H]-dexamethasone (40 Ci/mmol) and test compounds were added at concentrations from 20 to 100 nM. After overnight incubation at 4° C., bound and unbound [^3H] steroids were separated by addition of dextran-coated charcoal and centrifugation at 2100×g for 15 min at 4
C. Supernatants containing the [3H]-steroid receptor complexes were decanted into vials containing 4 ml Optifluor (Packard Instrument Co.), vortexed, equilibrated in a liquid scintillation counter for 30 minutes and then counted for 2 minutes. […] The standards for the PR and GR assays were unlabeled progesterone and dexamethasone, respectively.

[4] = system: progesterone receptor (PR); experiment: Expression of progesterone receptor in tumors (IHC); type: in vivo, rat; settings: 10 mg/kg
Protocol: The tumors that were evaluated for proliferation and apoptosis were also assessed for expression of estrogen and progesterone receptors by immunohistochemistry (IHC). The percentage of cells positive for ER and PR was determined and analyzed. Tumors were grouped into four different categories: tumors with 0% of cells expressing ER, tumors with 10% of cells expressing ER, tumors with 15 to 30% of cells expressing ER and tumors with 30-50% of cells expressing ER. In general, untreated tumors consistently expressed ER. Out of 12 tumors analyzed, all 12 expressed ER. Four out of these 12 tumors contained 30-50% ER-positive cells.
Untreated tumors consistently expressed PR (12/12 tumors). In general, untreated tumors expressed both receptors, ER and PR, therefore it is possible that many malignant tumors are expressors of these two transcription factors. […] In general, long term treatment with CDB-4124 tends to drive down the level of PR in tumors, whereas progesterone tends to work in the opposite direction. Thus, tumors maintain progesterone responsiveness in the presence of progesterone.

| PR expression in tumors (in words) [4] | SMILES | effect on serum corticosterone (in words) [1] | estrogen levels in human females (in words) [2] | anti-glucocorticoid receptor activity / glucocorticoid receptor binding (in words) [3] |
| --- | --- | --- | --- | --- |
|  | COCC(=O)[C@@]1(OC(C)=O)CC[C@H]2[C@@H]3CCC4=CC(=O)CCC4=C3[C@@H](c3ccc(N(C)C)cc3)C[C@@]21C [CDB-4124, 21-methoxy-17α-acetoxy-11β-(4 N,N-dimethylaminophenyl)-19-norpregna-4,9-diene-3,20-dione] | no strong effect | maintain estrogen levels in the normal range |  |
| neutral for PR | CC#C[C@]1(O)CC[C@H]2[C@@H]3CCC4=CC(=O)CCC4=C3[C@@H](c3ccc(N(C)C)cc3)C[C@@]21C [RU 486, mifepristone, reference compound] |  |  | moderately active in glucocorticoid receptor binding |
